In experiment [1] the test system is IL-6 release from RAW264.7 cells. Kind of experiment: LPS-stimulated IL-6 release from RAW264.7 cells (ELISA). The class given is cell-based, mouse. As to conditions: 2 h pretreatment, 1 μg/mL LPS 20-24 h, read-out: RAW 264.7 IL-6 release EC50. As to the method: (§1) RAW 264.7 cells were seeded at 4×10^4 cells per well n complete growth medium in 96 well white TC plates with clear bottoms one day prior to the assay. The next day the cells were washed once and 100 μL fresh growth media was added. Cells were pretreated with 0.5 μL from a 6 point 200× dilution series of the test compounds in DMSO for 2 hours. Following pretreatment with the drugs, the inflammatory response was induced by adding 5 μL of a 20 μg/mL solution of LPS (Sigma). The cells were incubated in the presence of the drugs and 1 μg/mL LPS for another 20-24 hours. Typically after treatment the total DMSO was […] of the culture volume and the final concentrations of the compounds were approximately: 40, 20, 10, 1, 0.2 and 0 μM depending on the MW of each compound. Modified dilution series were prepared as needed to get adequate dose response curves without changing the % DMSO. Samples were run in duplicate or triplicate and included DMSO treated control wells with and without LPS stimulation. Drugs with a known activity such as Parthenolide or DHMEQ were run as experimental controls. After 20-24 hours LPS activation, the media supernatant was collected from the cells and replaced with fresh media. The supernatant samples were cleared by centrifugation at 1,000×g for 5 minutes, transferred to fresh storage plates, and stored frozen at −30° C.
After determining the appropriate supernatant dilutions experimentally, mIL-6 levels in the supernatants were quantified using Quantikine™ mouse IL-6 immunoassay (R&D Systems) according to the manufacturer's protocol. […] diluted in Calibrator Diluent were added to 50 μL of Assay Diluent in microplate wells pre-coated with an anti-mouse IL-6 capture antibody. Controls included a calibrated positive IL-6 control sample, non-specific binding (NSB) wells containing Calibrator Diluent but no IL-6, and a recombinant mouse IL-6 standard dilution series (10-1000 pg/mL). The plates were incubated at room temperature for 2 hours with shaking and then washed 5 times with 400 μL 1× Wash Buffer. […] anti-mouse IL-6 antibody was added to each well to detect IL-6 captured on the plate. The plates were incubated at room temperature for 2 hours and then washed 5 times with 400 μL 1× Wash Buffer. Equal volumes of Color Reagents A and B were mixed and 100 μL of this HRP Substrate Solution was added to each well on the plate. The blue color was allowed to develop for 30 minutes and then the reaction was stopped using 100 μL of Stop Solution yielding a yellow color. Absorbance at 450 nm with a reference wavelength subtracted at 595 nm was recorded using a Becton-Dickinson DTX 880 Multimode Detector.
(§2) The concentration of mIL-6 in the unknown samples was determined from a curve-fit of the mIL-6 standard absorbance data and multiplying by the dilution factor. The maximum activity achieved in the absence of the inhibitor (DMSO+LPS treated wells) was arbitrarily given a value of 100%; likewise the minimum activity in the absence of the stimulant (no LPS) was assigned a value of 0%. Inhibition of the amount of mIL-6 cytokine released in the drug treated wells was calculated relative to the maximum activation in the DMSO+LPS treated control wells (ie. % inhibition=100−(drug+LPS treated)/(DMSO+LPS treated)). Dose response curves were used to determine the effective concentration to inhibit 50% of the mIL-6 cytokine released (IC50) by means of a SigmaPlot macro which fits a sigmoidal dose-response curve to the (log 10) μM concentration versus % inhibition. […] This technique yields an objective value for the IC50 provided that 50% inhibition was approached at the concentrations tested. FIG. 5 illustrates the effect of the compound of Example 10 on inhibiting IL-6 release.
A general note: In an ELISA, binding on a coated surface is turned into a signal by an enzyme label.

Experiment [2] relates to RPMI8226 multiple myeloma cells. The experiment can be described thus: Multiple myeloma growth inhibition (CellTiter-Glo), RPMI 8226. The class given is cell-based. As to conditions: 48 hours, FIG. 6. As to the method: (§3) Cryogenically stored RPMI 8226 and U266B1 cells (ATCC, Manassas, Va.) were thawed and cultured according to the vendor's recommendations. Cells were plated in 96-well white-wall tissue culture plates at a concentration of 2×10^5 cells/ml (0.1 ml per well) and incubated overnight at 37° C. in a humidified 5% CO2 atmosphere. Compounds were added to each well at the indicated concentrations (0.5 μl of 200×DMSO stock) and incubated with the cells for 48 hours. Cell viability was detected by adding 100 μl CellTiter-Glo Reagent (Promega, Madison, Wis.) to each well, mixing with pipette, and incubating at room temperature for 10 minutes. Luminescence was read with a DTX 880 Multimode Detector (Beckman Coulter, Fullerton, Calif.). Data was analyzed with SigmaPlot 11 (Systat Software, San Jose, Calif.) software.
Background: In ATP-based viability assays light output follows the ATP content of the culture.

Experiment [3] concerns U266B1 multiple myeloma cells. The experiment can be described thus: Multiple myeloma growth inhibition (CellTiter-Glo), U266B1. The class given is cell-based. Conditions: 48 hours, FIG. 7. As to the method:
as §3

In experiment [4] the test system is PGE2 release from RAW264.7 cells. The experiment can be described thus: LPS-stimulated PGE2 release from RAW264.7 cells (immunoassay). The format is cell-based. Conditions: Mus musculus, 2 h pretreatment, 1 μg/mL LPS 20-24 h, read-out: RAW 264.7 PGE2 release EC50. As to the method: as §1
After determining the appropriate supernatant dilutions experimentally, PGE2 levels in the supernatants were quantified using Parameter™ PGE2 Immunoassay (R&D Systems) according to the manufacturer's protocol. 100 µL of the supernatants diluted in Calibrator Diluent and 50 μL of a primary monoclonal anti-PGE2 antibody were added to the microplate wells pre-coated with a goat anti-mouse Ig capture antibody. Then 50 μL of an HRP conjugated PGE2 competitor was added. Controls included non-specific binding (NSB) wells containing Calibrator Diluent but no primary antibody and a recombinant PGE2 standard dilution series (40-5000 pg/mL). The plates were incubated at room temperature for 2 hours with shaking and then washed 5 times with 400 μL 1× Wash Buffer. Equal volumes of Color Reagents A and B were mixed and 200 μL of this HRP Substrate Solution was added to each well on the plate. The blue color was allowed to develop for 30 minutes and then the reaction was stopped using 50 μL of Stop Solution yielding a yellow color. Absorbance at 450 nm with a reference at 595 nm was recorded using a […] DTX 880 Multimode Detector.
as §2, with “PGE2” for “mIL-6”, “LPS treated wells)” for “LPS)”, “PGE2” for “mIL-6 cytokine”, “(i.e.,” for “(ie.”, “versus” for “versus %”, “tested.” for “tested. FIG. 5 illustrates the effect of the compound of Example 10 on inhibiting IL-6 release.”

[5] abbreviates: Mus musculus, RAW264.7, RAW264.7 cells.

Molecules are shown by their SMILES. Structures can show the parent of a compound that is named as a salt. Where two headings read alike, the source gives them in different places.

For orientation: EC50 means the concentration needed to bring the measured effect to its halfway point. Consider `CN(C)c1ccc(C(=O)NC2=CC(=O)C3OC3C2O)c(O)c1` (racemic) [Example 10, (±)-4-(dimethylamino)-2-hydroxy-N-(2-hydroxy-5-oxo-7-oxabicyclo[4.1.0]hept-3-en-3-yl)benzamide], for which, in experiment [1] (setting [5]), the EC50 turned out to be 440 nM. Besides, the “growth inhibition of RPMI8226 multiple myeloma cells” value in experiment [2] is “growth inhibition”. Further, in experiment [3], the “growth inhibition of U266B1 multiple myeloma cells” value is listed as “growth inhibition”.

In the case of `Cc1cccc(C(=O)NC2=CC(=O)C3OC3C2O)c1O` (racemic) [Example 4, (±)-2-hydroxy-N-(2-hydroxy-5-oxo-7-oxabicyclo[4.1.0]hept-3-en-3-yl)-3-methylbenzamide], the EC50 was determined as 760 nM in experiment [1] (setting [5]) and 2600 nM in experiment [4]. Regarding `COc1cc(N(C)C)ccc1C(=O)NC1=CC(=O)C2OC2C1O` (racemic) [Example 20, (±)-4-(dimethylamino)-N-(2-hydroxy-5-oxo-7-oxabicyclo[4.1.0]hept-3-en-3-yl)-2-methoxybenzamide], the EC50 in experiment [1] (setting [5]) amounted to 240 nM. Turning to `CN(C)c1ccc(C(=O)NC2=CC(=O)C3OC3C2O)c(O)c1` (racemic) [Example 19, (±)-4-(dimethylamino)-2-hydroxy-N-(2-hydroxy-5-oxo-7-oxabicyclo[4.1.0]hept-3-en-3-yl)benzamide trifluoroacetate], the EC50 in experiment [1] (RAW264.7 cells, trifluoroacetate) came to 740 nM.

For `O=C(NC1=CC(=O)C2OC2C1O)c1cccc(Cl)c1O` (racemic) [Example 6, (±)-3-chloro-2-hydroxy-N-(2-hydroxy-5-oxo-7-oxabicyclo[4.1.0]hept-3-en-3-yl)benzamide], the EC50 was found to be 2500 nM in experiment [1] (setting [5]) and 7200 nM in experiment [4]. For `COc1ccc(C(=O)NC2=CC(=O)C3OC3C2O)c(O)c1` (racemic) [Example 5, (±)-2-hydroxy-N-(2-hydroxy-5-oxo-7-oxabicyclo[4.1.0]hept-3-en-3-yl)-4-methoxybenzamide], in that order: 420 nM and 5700 nM. Regarding `Cc1ccc(C(C)C)c(C(=O)NC2=CC(=O)C3OC3C2O)c1O` (racemic) [Example 17, (±)-2-hydroxy-N-(2-hydroxy-5-oxo-7-oxabicyclo[4.1.0]hept-3-en-3-yl)-6-isopropyl-3-methylbenzamide], in experiment [1] (setting [5]), the EC50 stood at 480 nM. `O=C(NC1=CC(=O)C2OC2C1O)c1ccc(C(F)(F)F)cc1O` (racemic) [Example 1, 2-hydroxy-N-(2-hydroxy-5-oxo-7-oxabicyclo[4.1.0]hept-3-en-3-yl)-4-(trifluoromethyl)benzamide]: the EC50 in experiment [1] (setting [5]) was 3100 nM; in experiment [4], 13300 nM.

Turning to `COc1c(C(=O)NC2=CC(=O)C3OC3C2O)ccc(F)c1F` (racemic) [Example 16, (±)-3,4-difluoro-N-(2-hydroxy-5-oxo-7-oxabicyclo[4.1.0]hept-3-en-3-yl)-2-methoxybenzamide], the EC50 in experiment [1] (setting [5]) was 270 nM. On the same count and under the same terms, the same measure for `O=C(NC1=CC(=O)C2OC2C1O)c1cc(Br)ccc1O` (racemic) [Example 9, (±)-5-bromo-2-hydroxy-N-(2-hydroxy-5-oxo-7-oxabicyclo[4.1.0]hept-3-en-3-yl)benzamide]: 6500 nM; for `O=C(NC1=CC(=O)C2OC2C1O)c1ccc2ccccc2c1O` (racemic) [Example 8, (±)-1-hydroxy-N-(2-hydroxy-5-oxo-7-oxabicyclo[4.1.0]hept-3-en-3-yl)-2-naphthamide]: 300 nM.

For `COc1ccc2cc(O)c(C(=O)NC3=CC(=O)C4OC4C3O)cc2c1` (racemic) [Example 11, (±)-3-hydroxy-N-(2-hydroxy-5-oxo-7-oxabicyclo[4.1.0]hept-3-en-3-yl)-7-methoxy-2-naphthamide], the EC50 in experiment [1] (setting [5]) was 850 nM. For `Cc1ccc(C(=O)NC2=CC(=O)C3OC3C2O)c(O)c1` (racemic) [Example 3, (±)-2-hydroxy-N-(2-hydroxy-5-oxo-7-oxabicyclo[4.1.0]hept-3-en-3-yl)-4-methylbenzamide], the EC50 is 480 nM in experiment [1] (setting [5]) and 10000 nM in experiment [4].

On to `O=C(NC1=CC(=O)C2OC2C1O)c1ccc(Cl)cc1O` (racemic) [Example 2, (±)-4-chloro-2-hydroxy-N-(2-hydroxy-5-oxo-7-oxabicyclo[4.1.0]hept-3-en-3-yl)benzamide], for which the EC50 in experiment [1] (setting [5]) was found to be 1300 nM; in experiment [4] it was 5900 nM. The matching figures for `O=C(NC1=CC(=O)C2OC2C1O)c1cc2ccccc2cc1O` (racemic) [Example 7, (±)-3-hydroxy-N-(2-hydroxy-5-oxo-7-oxabicyclo[4.1.0]hept-3-en-3-yl)-2-naphthamide]: 1400 nM and 4600 nM. For `O=C(NC1=CC(=O)C2OC2C1O)c1cc2cc(Br)ccc2cc1O` (racemic) [Example 15, (±)-7-bromo-3-hydroxy-N-(2-hydroxy-5-oxo-7-oxabicyclo[4.1.0]hept-3-en-3-yl)-2-naphthamide], in experiment [1] (setting [5]), the EC50 is 220 nM.

The values are drawn from patent US20120046357A1, “Benzamide and Napthamide Derivatives Inhibiting Nuclear Factor-Kappa (B) - (NK-kB)” (Profectus Biosciences, Inc., priority 2009, published 2012).
